Experimental data reported in patent US20080161399A1 (Ajinomoto Co., Inc., priority 2005, published 2008).

Biological target: T1, plasma albumin (Rattus norvegicus, UniProt P02770)
T1 construct: from tissue; host or cells: plasma of SD rats (carbon tetrachloride cirrhosis model and healthy controls)
Test: L-tryptophan binding rate to plasma albumin (ultrafiltration, LC/MS)
Assay type: in vitro ADME
Settings: 37° C., n=2
Procedure: As a cirrhosis model rat, 25-week-old male SD rats (n=2) were prepared by administering carbon tetrachloride twice a week for 18 consecutive weeks and used, and 10-week-old healthy SD rats (n=2) were used as a control.
The plasma was preincubated at 37° C. for 20 min, 10 μL of L-tryptophan solution (10 mM) was added per 1 mL of plasma and they were mixed well (A). Solution A (450 μL) was dispensed to an ultrafiltration tube (Millipore, molecular weight 30,000 cut) and centrifuged at 3,000 g for 5 min at 37° C. to give 50 μL of filtrate (B) and 50 μL of unfiltrated solution (C). An equivalent amount of 8% (w/v) TCA solution was added to each of A and B, mixed and the mixture was centrifuged at room temperature and 3,000 g for 5 min. A protein-free supernatant was recovered. Thereto was added a 4-fold amount of 0.125% (v/v) heptafluorobutyric acid (HFBA) solution, mixed, diluted with 0.1% HFBA so that the concentration would fall within the range defined by the standard curve. Then, the concentration of L-tryptophan in each sample was quantified by the LC/MS method. The L-tryptophan binding rate to plasma albumin was shown by [1-(Trp concentration (B)/Trp concentration (A))]×100(%). The recovery rate was calculated by [Trp concentration (B)×50 μL+Trp concentration (C)×400 μL]/[Trp concentration (A)×450 μL]×100(%).

T1 sequence (P02770 25-608): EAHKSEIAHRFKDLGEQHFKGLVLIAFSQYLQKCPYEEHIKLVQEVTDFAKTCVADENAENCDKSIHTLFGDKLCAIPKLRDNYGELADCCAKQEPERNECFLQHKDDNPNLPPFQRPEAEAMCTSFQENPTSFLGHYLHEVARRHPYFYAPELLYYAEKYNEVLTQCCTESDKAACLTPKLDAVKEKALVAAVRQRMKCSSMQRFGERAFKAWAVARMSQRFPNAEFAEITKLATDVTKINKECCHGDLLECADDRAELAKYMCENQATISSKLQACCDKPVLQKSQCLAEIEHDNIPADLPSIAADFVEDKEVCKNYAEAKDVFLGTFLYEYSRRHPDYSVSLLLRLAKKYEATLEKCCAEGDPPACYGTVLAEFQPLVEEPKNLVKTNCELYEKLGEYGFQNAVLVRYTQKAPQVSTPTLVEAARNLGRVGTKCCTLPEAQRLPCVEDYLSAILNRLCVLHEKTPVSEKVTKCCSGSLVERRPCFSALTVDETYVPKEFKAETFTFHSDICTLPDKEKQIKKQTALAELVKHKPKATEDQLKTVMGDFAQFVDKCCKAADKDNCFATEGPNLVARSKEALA

## N[C@@H](Cc1c[nH]c2ccccc12)C(=O)O [L-tryptophan]
Plasma of cirrhosis model rats (carbon tetrachloride, 18 weeks)
  L-tryptophan binding rate to albumin: 48%
Plasma of normal (healthy SD) rats
  L-tryptophan binding rate to albumin: 83%
